According to patent publication US6503945B2, “Cationic amphiphiles containing N-hydroxyalkyl group for intracellular delivery of biologically active molecules” (Council of Scientific & Industrial Research, priority 1909, dated 2003):

System: COS-1 cells
Assay: Cell transfection assay (β-galactosidase reporter gene activity)
Assay type: cell-based, African green monkey
Settings: compared to Lipofectamine
Protocol: Separate 1 mole (80 l of a 0.0126 M stock solution in chloroform) of N,N-di-n-hexadecyl-N,N-dihydroxyethylammonium bromide (DHDEAB) and 1 mole of the neutral colipid cholesterol (40 l of a 0.0255 M stock solution in chloroform) were combined in a glass vial. The solvent was evaporated initially by a thin flow of moisture free nitrogen and then under high flow for two minutes and then further dried under vacuum (1 mm Hg) for 6 hours.
The dried lipid film was then hydrated with sterile deionized water (1 ml) overnight (9-10 hours) in room temperature to produce a dispersed suspension. The hydrated mixture was then vortexed for 1 minute and was sonicated in a probe sonicator at a constant 25 W sonic power for 5 minutes. The concentrations of both DHDEAB and cholesterol in the resulting solution obtained after sonication was 1 mM. […]
For protein estimation, the resultant medium was removed from the plates and the cells were washed with PBS- Lysis buffer (1001 containing 250 mM Tris.HCl, pH 8.0, 0.5% NP40) was added and the cells were lysed for 30 minutes. […] The plates were read in an Elisa reader (Molecular Devices, Vmax) with a 650 nm filter. […]
The level of galactosidase activity in a 501 lysate was measured by adding to 501 of 2× gal mixture containing 1.33 mg/ml o-nitrophenyl--D-galactopyranoside (Sigma N1127), 200 mM sodium phosphate pH 7.15 and […]. […]

Q: “N,N,-di[O-hexadecanoyl]hydroxyethyl-N-hydroxyethyl-N-methylammonium bromide [amphiphile No. 5]” was tested. Which “in vitro transfection efficiencies” value did it give?
A: Its value is “enhanced”.

Q: For `CCCCCCCCCCCCCCCC[N+](CCO)(CCO)CCCCCCCCCCCCCCCC` [amphiphile No. 1, N,N-di-n-hexadecyl-N, N-dihydroxyethylammonium bromide], which “in vitro transfection efficiencies” value is on record?
A: Its value is “enhanced”.
